In US9204653B2, “5-fluoro pyrimidine derivatives” (DOW AGROSCIENCES LLC, priority 2008, dated 2015):
Like-named read-outs stand apart in the source and are kept apart here.

Tested on: Mycosphaerella graminicola; Anamorph: Septoria tritici; Bayer Code SEPTTR
Experiment: Leaf blotch of wheat, foliar fungicide treatment, one day protectant (1DP) or three day curative (3DC)
Type: in vivo, Septoria tritici on wheat plants (variety Yuma)
Conditions: Zymoseptoria tritici
[1] = 24 h, one day protectant (1DP), 25 ppm, rating of percent disease control, read-out: SETTTR 1DP 25 ppm
[2] = 24 h, one day protectant (1DP), rating of percent disease control, read-out: SEPTTR 1DP 100 ppm
[3] = 72 h, three day curative (3DC), 25 ppm, rating of percent disease control, read-out: SEPTTR 3DC 25 ppm
[4] = 72 h, three day curative (3DC), rating of percent disease control, read-out: SEPTTR 3DC 100 ppm
[5] = 24 h, one day protectant, 25 ppm, rating of percent disease control, read-out: SETTTR 1DP 25 ppm
[6] = 24 h, one day protectant, rating of percent disease control, read-out: SEPTTR 1DP 100 ppm
[7] = 72 h, three day curative, 25 ppm, rating of percent disease control, read-out: SEPTTR 3DC 25 ppm
[8] = 72 h, three day curative, rating of percent disease control, read-out: SEPTTR 3DC 100 ppm
[9] = 24 h, one day protectant (1DP), 25 ppm, percent disease control rating, read-out: SETTTR 1DP 25 ppm
[10] = 24 h, one day protectant (1DP), percent disease control rating, read-out: SEPTTR 1DP 100 ppm
[11] = 72 h, three day curative (3DC), 25 ppm, percent disease control rating, read-out: SEPTTR 3DC 25 ppm
[12] = 72 h, three day curative (3DC), percent disease control rating, read-out: SEPTTR 3DC 100 ppm
[13] = 24 h, one day protectant (1DP), 25 ppm (first 1DP column), percent control rating, read-out: SETTTR 1DP 25 ppm
[14] = 24 h, one day protectant (1DP), 25 ppm as printed (second 1DP column), percent control rating, read-out: SETTTR 1DP 25 ppm
[15] = 72 h, three day curative (3DC), 25 ppm, percent control rating, read-out: SEPTTR 3DC 25 ppm
[16] = 72 h, three day curative (3DC), percent control rating, read-out: SEPTTR 3DC 100 ppm

Cc1cc(COc2ncc(F)c(N)n2)ccc1F [Compound 365]
pest or weed control at 25 ppm [1]: 76 to 100%
pest or weed control at 100 ppm [2]: 76 to 100%
pest or weed control at 25 ppm [3]: 76 to 100%
pest or weed control at 100 ppm [4]: 76 to 100%

O=C(Nc1ccsc1)Nc1nc(OCCc2ccc(Cl)cc2)ncc1F [Compound 697]
pest or weed control at 25 ppm [5]: 0 to 25%
pest or weed control at 100 ppm [6]: 0 to 25%
pest or weed control at 25 ppm [7]: 26 to 50%
pest or weed control at 100 ppm [8]: 26 to 50%

Nc1nc(OCc2cccc(CO)c2)ncc1F [Compound 133]
pest or weed control at 25 ppm [9]: 51 to 75%
pest or weed control at 100 ppm [10]: 76 to 100%
pest or weed control at 25 ppm [11]: 51 to 75%
pest or weed control at 100 ppm [12]: 76 to 100%

ON(Cc1ccccc1)c1nc(OCc2ccc(F)cc2)ncc1F [Compound 235]
pest or weed control at 25 ppm [1]: 76 to 100%
pest or weed control at 100 ppm [2]: 76 to 100%
pest or weed control at 25 ppm [3]: 51 to 75%
pest or weed control at 100 ppm [4]: 76 to 100%

C=CCOc1ncc(F)c(NO[Si](C)(C)C(C)(C)C)n1 [Compound 1075]
pest or weed control at 25 ppm [13]: 0 to 25%
pest or weed control at 25 ppm [14]: 0 to 25%
pest or weed control at 25 ppm [15]: 0 to 25%
pest or weed control at 100 ppm [16]: 0 to 25%

Nc1nc(OCc2ccc(F)c(C(F)(F)F)c2)ncc1F [Compound 60]
pest or weed control at 25 ppm [9]: 76 to 100%
pest or weed control at 100 ppm [10]: 76 to 100%
pest or weed control at 25 ppm [11]: 76 to 100%
pest or weed control at 100 ppm [12]: 76 to 100%

CN(C)/C=N/c1nc(OC(=O)OCc2ccccc2)ncc1F [Compound 112]
pest or weed control at 25 ppm [9]: 76 to 100%
pest or weed control at 100 ppm [10]: 76 to 100%
pest or weed control at 25 ppm [11]: 76 to 100%
pest or weed control at 100 ppm [12]: 76 to 100%

COc1ccc(/C=N/Nc2nc(OCc3cccc(OC)c3)ncc2F)cc1 [Compound 65]
pest or weed control at 25 ppm [9]: 26 to 50%
pest or weed control at 100 ppm [10]: 51 to 75%
pest or weed control at 25 ppm [11]: 26 to 50%
pest or weed control at 100 ppm [12]: 51 to 75%

O=C(Nc1nc(OCc2cccc(F)c2)ncc1F)OCc1ccccc1 [Compound 478]
pest or weed control at 25 ppm [1]: 51 to 75%
pest or weed control at 100 ppm [2]: 76 to 100%
pest or weed control at 25 ppm [3]: 76 to 100%
pest or weed control at 100 ppm [4]: 76 to 100%

N#Cc1cccc(COc2ncc(F)c(NC(=S)NCc3ccccc3F)n2)c1 [Compound 504]
pest or weed control at 25 ppm [1]: 0 to 25%
pest or weed control at 100 ppm [2]: 51 to 75%
pest or weed control at 25 ppm [3]: 0 to 25%
pest or weed control at 100 ppm [4]: 0 to 25%

COCCCOc1ncc(F)c(NC(C)=O)n1 [Compound 321]
pest or weed control at 25 ppm [1]: 76 to 100%
pest or weed control at 100 ppm [2]: 76 to 100%
pest or weed control at 25 ppm [3]: 76 to 100%
pest or weed control at 100 ppm [4]: 76 to 100%

O=S(=O)(Nc1nc(OCc2ccccc2)ncc1F)c1ccccc1 [Compound 1010]
pest or weed control at 25 ppm [13]: 0 to 25%
pest or weed control at 25 ppm [14]: 0 to 25%
pest or weed control at 25 ppm [15]: 0 to 25%
pest or weed control at 100 ppm [16]: 0 to 25%

COc1cccc(COc2ncc(F)c(OC)n2)c1 [Compound 269]
pest or weed control at 25 ppm [1]: 0 to 25%
pest or weed control at 100 ppm [2]: 0 to 25%
pest or weed control at 25 ppm [3]: 0 to 25%
pest or weed control at 100 ppm [4]: 0 to 25%

Oc1ncc(F)c(NCOCc2ccccc2)n1 [Compound 1082]
pest or weed control at 25 ppm [13]: 0 to 25%
pest or weed control at 25 ppm [14]: 0 to 25%
pest or weed control at 25 ppm [15]: 0 to 25%
pest or weed control at 100 ppm [16]: 0 to 25%

CC(=O)Nc1nc(O/N=C(\C)c2ccccc2)ncc1F [Compound 616]
pest or weed control at 25 ppm [5]: 76 to 100%
pest or weed control at 100 ppm [6]: 76 to 100%
pest or weed control at 25 ppm [7]: 76 to 100%
pest or weed control at 100 ppm [8]: 76 to 100%

C=CCOc1ncc(F)c(NNC(=O)c2cccc(C)c2)n1 [Compound 959, N′-(2-(allyloxy)-5-fluoropyrimidin-4-yl)-3-methylbenzohydrazide]
pest or weed control at 25 ppm [13]: 0 to 25%
pest or weed control at 25 ppm [14]: 0 to 25%
pest or weed control at 25 ppm [15]: 0 to 25%
pest or weed control at 100 ppm [16]: 0 to 25%

Nc1nc(OCc2cc(F)c(F)c(F)c2F)ncc1F [Compound 693]
pest or weed control at 25 ppm [5]: 76 to 100%
pest or weed control at 100 ppm [6]: 76 to 100%
pest or weed control at 25 ppm [7]: 76 to 100%
pest or weed control at 100 ppm [8]: 76 to 100%

COc1ccc(COc2ncc(F)c(/N=C/N(C)C)n2)cc1 [Compound 726]
pest or weed control at 25 ppm [5]: 76 to 100%
pest or weed control at 100 ppm [6]: 76 to 100%
pest or weed control at 25 ppm [7]: 76 to 100%
pest or weed control at 100 ppm [8]: 76 to 100%
